# Experimental data published in US11370774B2, “Substituted benzofuran, benzopyrrole, benzothiophene, and structurally related complement inhibitors” (BioCryst Pharmaceuticals, Inc., priority 2018, dated 2022).
# Target: Factor D (Homo sapiens (Human), UniProt P00746)
# Assay: Factor D esterolytic assay (Z-Lys-SBzl substrate, DTNB, 405 nm)
# Type: biochemical
# Conditions: Z-Lys-SBzl 1.29 mM, pH 7.5, 10% DMSO, tested a minimum of three times, read-out: Measured Ki (IC50) Value for Compounds: IC50
# Outline: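 Thioester hydrolysis (Z-Lys-SBzl, 1.29 mM) by human Factor D ([…]) detected through DTNB color at 405 nm over 600 sec, minus 690 nm background. Buffer: 100 mM HEPES pH 7.5, 500 mM NaCl, 10% DMSO; optional room-temperature preincubation before substrate. IC50 derived from percent rate inhibition; at least three runs.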
# Factor D, sequence (P00746 26-253): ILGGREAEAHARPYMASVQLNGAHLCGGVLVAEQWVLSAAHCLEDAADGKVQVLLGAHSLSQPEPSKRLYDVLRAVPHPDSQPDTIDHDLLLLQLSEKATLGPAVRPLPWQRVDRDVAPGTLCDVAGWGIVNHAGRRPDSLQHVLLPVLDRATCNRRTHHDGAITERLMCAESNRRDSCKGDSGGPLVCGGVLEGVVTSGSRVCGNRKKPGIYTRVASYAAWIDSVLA
row,IC50 [µM],Compound
1,< 1,"NCc1cccc(-c2cc(CCN3CCC[C@H]3C(=O)NCc3cccc(Cl)c3F)cc3ccoc23)c1 [Compound 369d, (S)-1-(2-(7-(3-(aminomethyl)phenyl)benzofuran-5-yl)ethyl)-N-(3-chloro-2-fluorobenzyl)pyrrolidine-2-carboxamide]"
2,< 1,"NCc1cccc(-c2cc(COc3c(CC(=O)O)cccc3-c3ccccc3)cc3ccoc23)c1 [Compound 370f, 2-(2-((7-(3-(aminomethyl)phenyl)benzofuran-5-yl)methoxy)-[1,1′-biphenyl]-3-yl)acetic acid]"
3,< 1,"CCc1ccc(CC(=O)O)c(OCc2cc(-c3ccnc(CN)c3)c3occc3c2)c1 [Compound 371c, 2-(2-((7-(2-(aminomethyl)pyridin-4-yl)benzofuran-5-yl)methoxy)-4-ethylphenyl)acetic acid]"
4,< 1,"Cn1ccc(NCc2cc3cc(COc4ccccc4CC(=O)O)cc(-c4cccc(CN)c4)c3o2)n1 [Compound 372c, 2-(2-((7-(3-(aminomethyl)phenyl)-2-(((1-methyl-1H-pyrazol-3-yl)amino)methyl)benzofuran-5-yl)methoxy)phenyl)acetic acid]"
5,< 1,"NCc1cccc(-c2cc(COc3ccccc3CC(=O)O)cc3cc(F)oc23)c1F [Compound 373b, 2-(2-((7-(3-(aminomethyl)-2-fluorophenyl)-2-fluorobenzofuran-5-yl)methoxy)phenyl)acetic acid]"
6,< 1,"NCc1cccc(-c2cc(COc3ccccc3CC(=O)O)cc3cc(-c4ccccc4)oc23)c1 [Compound 374f, 2-(2-((7-(3-(aminomethyl)phenyl)-2-phenylbenzofuran-5-yl)methoxy)phenyl)acetic acid]"
7,< 1,"CCc1ccc(CC(=O)O)c(OCc2cc(-c3ccnc(CN)c3F)c3occc3c2)c1 [Compound 375c, 2-(2-((7-(2-(aminomethyl)-3-fluoropyridin-4-yl)benzofuran-5-yl)methoxy)-4-ethylphenyl)acetic acid]"
8,< 1,"NCc1cccc(-c2cc(COc3ccccc3CC(=O)O)cc3cc(Cc4ccccc4)oc23)c1 [Compound 377e, 2-(2-((7-(3-(aminomethyl)phenyl)-2-benzylbenzofuran-5-yl)methoxy)phenyl)acetic acid]"
9,< 1,"CN(Cc1ccccc1CC(=O)O)c1cc(-c2cccc(CN)c2)c2occc2c1 [Compound 378d, 2-(2-(((7-(3-(aminomethyl)phenyl)benzofuran-5-yl)(methyl)amino)methyl)phenyl)acetic acid]"
10,< 1,"Cc1ccc(CC(=O)O)c(OCc2cc(-c3ccnc(CN)c3)c3occ(C(F)(F)F)c3c2)c1 [Compound 379c, 2-(2-((7-(2-(aminomethyl)pyridin-4-yl)-3-(trifluoromethyl)benzofuran-5-yl)methoxy)-4-methylphenyl)acetic acid]"
11,> 10,"N[C@H](c1cc(-c2cc(COc3ccccc3CC(=O)O)cc3ccoc23)ccn1)C(F)(F)F [Compound 380e, (R)-2-(2-((7-(2-(1-amino-2,2,2-trifluoroethyl)pyridin-4-yl)benzofuran-5-yl)methoxy)phenyl)acetic acid]"
12,> 10,"N[C@@H](c1cc(-c2cc(COc3ccccc3CC(=O)O)cc3ccoc23)ccn1)C(F)(F)F [Compound 381e, (S)-2-(2-((7-(2-(1-amino-2,2,2-trifluoroethyl)pyridin-4-yl)benzofuran-5-yl)methoxy)phenyl)acetic acid]"
13,< 1,"Cc1coc2c(-c3cccc(CN)c3)cc(COc3ccccc3CC(=O)O)cc12 [Compound 382h, 2-(2-((7-(3-(aminomethyl)phenyl)-3-methylbenzofuran-5-yl)methoxy)phenyl)acetic acid]"
14,< 1,"Cc1coc2c(-c3cccc(CN)c3F)cc(COc3ccccc3CC(=O)O)cc12 [Compound 383b, 2-(2-((7-(3-(aminomethyl)-2-fluorophenyl)-3-methylbenzofuran-5-yl)methoxy)phenyl)acetic acid]"
15,< 1,"COc1ccc(CC(=O)O)c(OCc2cc(-c3cccc(CN)c3)c3occc3c2F)c1 [Compound 384c, 2-(2-((7-(3-(aminomethyl)phenyl)-4-fluorobenzofuran-5-yl)methoxy)-4-methoxyphenyl)acetic acid]"
16,< 1,"COc1ccc(CC(=O)O)c(OCc2cc(-c3ccnc(CN)c3F)c3occc3c2F)c1 [Compound 385d, 2-(2-((7-(2-(aminomethyl)-3-fluoropyridin-4-yl)-4-fluorobenzofuran-5-yl)methoxy)-4-methoxyphenyl)acetic acid]"
17,< 1,"NCc1cccc(-c2cc(COc3ccc(F)cc3CC(=O)O)c(F)c3ccoc23)c1 [Compound 386c, 2-(2-((7-(3-(aminomethyl)phenyl)-4-fluorobenzofuran-5-yl)methoxy)-5-fluorophenyl)acetic acid]"
18,< 1,"NCc1cccc(-c2cc(COc3ccc(F)cc3CC(=O)O)c(F)c3ccoc23)c1F [Compound 387b, 2-(2-((7-(3-(aminomethyl)-2-fluorophenyl)-4-fluorobenzofuran-5-yl)methoxy)-5-fluorophenyl)acetic acid]"
19,< 1,"NCc1nccc(-c2cc(COc3ccc(F)cc3CC(=O)O)c(F)c3ccoc23)c1F [Compound 388d, 2-(2-((7-(2-(aminomethyl)-3-fluoropyridin-4-yl)-4-fluorobenzofuran-5-yl)methoxy)-5-fluorophenyl)acetic acid]"
20,< 1,"NCc1cc(-c2cc(COc3ccc(F)cc3CC(=O)O)c(F)c3ccoc23)ccn1 [Compound 389c, 2-(2-((7-(2-(aminomethyl)pyridin-4-yl)-4-fluorobenzofuran-5-yl)methoxy)-5-fluorophenyl)acetic acid]"
21,< 1,"CCc1ccc(CC(=O)O)c(OCc2cc(-c3ccnc(CN)c3)c3oc(F)cc3c2)c1 [Compound 390c, 2-(2-((7-(2-(aminomethyl)pyridin-4-yl)-2-fluorobenzofuran-5-yl)methoxy)-4-ethylphenyl)acetic acid]"
22,< 1,"NCc1cccc(-c2cc(COc3cc(-c4ccccc4)ccc3CC(=O)O)cc3ccoc23)c1F [Compound 391f, 2-(3-((7-(3-(aminomethyl)-2-fluorophenyl)benzofuran-5-yl)methoxy)-[1,1′-biphenyl]-4-yl)acetic acid]"
23,< 1,"NCc1cccc(-c2cc(COc3c(CC(=O)O)ccc4ccoc34)cc3ccoc23)c1 [Compound 392g, 2-(7-((7-(3-(aminomethyl)phenyl)benzofuran-5-yl)methoxy)benzofuran-6-yl)acetic acid]"
24,< 1,"NCc1cc(-c2cc(COc3cc(-c4ccccc4)ccc3CC(=O)O)cc3ccoc23)ccn1 [Compound 393d, 2-(3-((7-(2-(aminomethyl)pyridin-4-yl)benzofuran-5-yl)methoxy)-[1,1′-biphenyl]-4-yl)acetic acid]"
25,< 1,"NCc1nccc(-c2cc(COc3cc(-c4ccccc4)ccc3CC(=O)O)cc3ccoc23)c1F [Compound 394c, 2-(3-((7-(2-(aminomethyl)-3-fluoropyridin-4-yl)benzofuran-5-yl)methoxy)-[1,1′-biphenyl]-4-yl)acetic acid]"
26,< 1,"NCc1cccc(-c2cc(COc3cc(C4CCCC4)ccc3CC(=O)O)cc3ccoc23)c1 [Compound 395c, 2-(2-((7-(3-(aminomethyl)phenyl)benzofuran-5-yl)methoxy)-4-cyclopentylphenyl)acetic acid]"
